Measured values: patent US20230210116A1, “HONEYBEE REPELLENT” (EARTH CORPORATION, priority 2020, published 2023)

Test system: honeybees
Assay: Test for Confirmation of Honeybee Repelling Effect 1, 2, 3 (feeding station with 40% sugar water)
Assay type: in vivo
Conditions: for Corrected repelling rate (%) Honeybees: Test 3, 5 mL
From the text: The following were used as the test samples for Examples: 2% by weight per volume ethanol solutions of octane (a-1), tetradecane (a-2), heptadecane (a-3), nonadecane (a-4), 2-acetylfuran (b-1), 5-methyl-2-furaldehyde (b-2), furfural (b-3), furaneol (c-1), 2-acetylpyrrole (d-1), 1-benzylpyrrole (d-2), 1-octanol (e-1), 1-dodecanol (e-2), and 1-octadecanol (e-3), respectively; and 2% by weight per volume aqueous solutions of furfuryl alcohol (b-4), sotolon (c-2), and α-angelicalactone (c-3), respectively.
The following were used as the test samples for Comparative Examples: 2% by weight per volume ethanol solutions of eicosane (carbon number 20, p-1), heneicosane (carbon number 21, p-2), 2-methyloctane (branched alkane, p-3), tributyl o-acetylcitrate (p-4), and 1-methylpyrrole (p-5), respectively; and 2% by weight per volume aqueous solutions of 2-methyltetrahydrofuran-3-one (p-6) and acetic acid (p-7), respectively.
Ethanol alone and water alone were used as samples for correction.
The cotton pads 13 were impregnated with 40% sugar water (80 g), after which disposable wooden chopsticks 15 (80 mm in length) were placed over the cotton pads on the lid surface as “landing areas,” for use as “test insect (honeybee) feeding station 1” 10.
A nest box of test insects (honeybees) (1 colony: approx. 6,000 bees) was placed at the center of a glass hothouse (bottom face: 5 m×10 m, height (highest part): 3 m, temperature: 25° C.), and the aforementioned “test insect (honeybee) feeding station 1” was installed at a location 2 meters away from the nest box.
After confirming that at least five test insects (honeybees) were feeding at the above “test insect (honeybee) feeding station 1” installed in the hothouse, test 1 was conducted to measure the “approaching count (Mz)” and “landing count (My)” and calculate the “landing rate (Mx).”
Next, the “test insect (honeybee) feeding station 1” installed in the hothouse was replaced with each “test insect (honeybee) feeding station 2” which was let to stand still for 5 minutes, after which test 2 was conducted to measure the “approaching count (Nz)” and “landing count (Ny)” and calculate the “landing rate (Nx).”
Approaching count: Total number of times a honeybee has approached within 25 cm of the cotton wools at the feeding station during 5 minutes
Landing count: Total number of honeybees that have remained for at least 1 second on the cotton pads at the feeding station during 5 minutes
Landing rate (%): (Landing count/Approaching count)×100
The “repelling rate Q” and “corrected repelling rate R” were calculated from the above “landing rates” using the calculation formula below. For the “repelling rate of sample for correction” used to calculate the “corrected repelling rate R,” the repelling rate of each of the samples for correction above (ethanol alone or water alone being a solvent for the active ingredient) was used.
Repelling rate Q (%)={(Mx)−(Nx)}/(Mx)×100
Corrected repelling rate R (%)={Repelling rate of test sample−Repelling rate of sample for correction}/{100−Repelling rate of sample for correction}×100
The following were used as the test samples for Examples: 0.1% by weight per volume ethanol solutions of 3-methyl-2-butanol (e-4), carvacrol (x-1), isoeugenol (x-2), cinnamyl alcohol (x-3), diacetone alcohol (x-4), α-amylcinnamaldehyde (x-5), 3-methyl-2-butenal (x-6), valeraldehyde (x-7), ethyl cinnamate (x-8), methyl cinnamate (x-9), ethyl isovalerate (x-10), isoamyl formate (x-11), 5-ethyl-2-methylpyridine (x-12), 2-(3-phenylpropyl)pyridine (x-13), 2,6-dimethylpyridine (x-14), ß-ionone (x-15), 2-acetylthiazole (x-16), butylamine (x-17), and citronella oil (x-18), respectively; and a 0.1% by weight per volume aqueous solution of (3-amino-3-carboxypropyl)dimethylsulfonium chloride (x-19).

[1] = Test 1, 2% by weight per volume solution
[2] = Test 1, honeybees, 2% by weight per volume solution, 5 mL sprayed (active ingredient 0.1 g)
[3] = 0.1% by weight per volume solution
[4] = 2.0% by weight per volume solution
[5] = Test 2, honeybees, 0.1% by weight per volume solution, 5 mL (active ingredient 5 mg)

SMILES	Corrected repelling rate R (%) [2]	Corrected repelling rate (%) Honeybees [3]	further results
CCCCCCCCCCCCCCCCC [a-3, heptadecane]	28.2%		repelling effect / repelled behaviors of honeybees (in words) [1]: excellent repelling effect
CCCCCCCCCCCCCCCCCCC [a-4, nonadecane]	56.7%		
Cc1ccc(C=O)o1 [b-2, 5-methyl-2-furaldehyde]	55.3%		
O=Cc1ccco1 [b-3, furfural]			Corrected repelling rate R (%) (2 % strength): 93.6%
CC(=O)c1ccc[nH]1 [d-1, 2-acetylpyrrole]	37.0%		repelling effect / repelled behaviors of honeybees (in words) [1]: excellent repelling effect
c1ccc(Cn2cccc2)cc1 [d-2, 1-benzylpyrrole]	68.3%		repelling effect / repelled behaviors of honeybees (in words) [1]: excellent repelling effect
CCCCCCCCO [e-1, 1-octanol]	58.3%		
CCCCCCCCCCCCO [e-2, 1-dodecanol]	84.6%		
CCCCCCCCCCCCCCCCCCO [e-3, 1-octadecanol]	16.2%		
CC(C)CO.CC(C)CO [e-5, 2-methyl-1-propanol (isobutanol)]		88.2%	
CC(C)CCO [e-6, 3-methyl-1-butanol]		65.4%	
CCCCCCCCCCCCCCCCCCCC [p-1, eicosane, reference compound]	<0%		repelling effect / repelled behaviors of honeybees (in words) [1]: not observed at all
CCCCCCCCCCCCCCCCCCCCC [p-2, heneicosane, reference compound]	<0%		repelling effect / repelled behaviors of honeybees (in words) [1]: not observed at all
CCCCCCC(C)C [p-3, 2-methyloctane, reference compound]	<0%		repelling effect / repelled behaviors of honeybees (in words) [1]: not observed at all
CCCCOC(=O)CC(CC(=O)OCCCC)(OC(C)=O)C(=O)OCCCC [p-4, tributyl o-acetylcitrate, reference compound]	<0%		
Cn1cccc1 [p-5, 1-methylpyrrole, reference compound]	<0%		repelling effect / repelled behaviors of honeybees (in words) [1]: not observed at all
CC1OCCC1=O (centres unmarked) [p-6, 2-methyltetrahydrofuran-3-one, reference compound]	<0%		repelling effect / repelled behaviors of honeybees (in words) [1]: not observed at all

SMILES	Corrected repelling rate R (%) [2]	Corrected repelling rate (%) Honeybees [3]	further results
CC(=O)O [p-7, acetic acid, reference compound]	<0%		
CCC(=O)O [p-8, propionic acid, reference compound]			Corrected repelling rate (%) Honeybees [4]: <0%
CC=Cc1ccc(O)c(OC)c1 [x-2, isoeugenol]			Corrected repelling rate R (%) [5]: 64.6%
CC(=O)CC(C)(C)O [x-4, diacetone alcohol]			Corrected repelling rate R (%) [5]: 20.9%
CCCCCC(C=O)=Cc1ccccc1 [x-5, α-amylcinnamaldehyde]			Corrected repelling rate R (%) [5]: 77.8%
CC(=O)c1nccs1 [x-16, 2-acetylthiazole]			Corrected repelling rate R (%) [5]: 61.7%
CSCCCO [y-3, methionol]			Corrected repelling rate (%) Honeybees [4]: 84.7%
CC(CC=O)CCCC(C)(C)O (centres unmarked) [y-9, hydroxycitronellal]			Corrected repelling rate (%) Honeybees [4]: 92.8%
CCC=O [y-11, propionaldehyde]		64.0%	
CCCCCCCC=O [y-12, n-octanal]		96.3%	
C/C=C(\C)C=O [y-13, trans-2-methyl-2-butenal]		67.4%	
CCCC=O [y-15, butylaldehyde]		51.0%	
CCCOC(=O)c1ccc(O)cc1 [y-16, propyl 4-hydroxybenzoate]		89.7%	
CC(=O)OCc1ccccc1 [y-19, benzyl acetate]		83.2%	
CC(C)COC(=O)Cc1ccccc1 [y-21, isobutyl phenylacetate]		80.5%	
CCC(=O)OCc1ccccc1 [y-23, benzyl propionate]		26.0%	
